Patent US20170210723A1, “MOLECULES HAVING PESTICIDAL UTILITY, AND INTERMEDIATES, COMPOSITIONS, AND PROCESSES, RELATED THERETO” (priority 2016, published 2017)

Experiments:
[1] = test system: Beet Armyworm (Spodoptera exigua); experiment: Bioassays on BAW, 128-well diet tray assay; format: in vivo; details: Spodoptera exigua, 168 h; 50 μg/cm^2 on artificial diet, second instar larvae, five to seven days; read-out: BAW % Control (or Mortality) rating
Method: Bioassays on BAW were conducted using a 128-well diet tray assay. One to five second instar BAW larvae were placed in each well (3 mL) of the diet tray that had been previously filled with 1 mL of artificial diet to which 50 μg/cm^2 of the test molecule (dissolved in 50 μL of 90:10 acetone-water mixture) had been applied (to each of eight wells) and then allowed to dry. Trays were covered with a clear self-adhesive cover and held at 25° C., 14:10 light-dark for five to seven days. Percent mortality was recorded for the larvae in each well; activity in the eight wells was then averaged. The results are indicated in the table entitled “Table ABC: Biological Results” (See Table Section).
(§1) Bioassays on BAW and CL were conducted according to the procedures outlined in Example A: Bioassays on Beet Armyworm (“BAW”) and Cabbage Looper (“CL”) using the indicated concentrations.

[2] = test system: Cabbage Looper (Trichoplusia ni); experiment: Bioassays on CL, 128-well diet tray assay; format: in vivo; details: Trichoplusia ni, 168 h; 50 μg/cm^2 on artificial diet, second instar larvae, five to seven days; read-out: CL % Control (or Mortality) rating
Method: Bioassays on CL were conducted using a 128-well diet tray assay.
One to five second instar CL larvae were placed in each well (3 mL) of the diet tray that had been previously filled with 1 mL of artificial diet to which 50 μg/cm^2 of the test molecule (dissolved in 50 μL of 90:10 acetone-water mixture) had been applied (to each of eight wells) and then allowed to dry. Trays were covered with a clear self-adhesive cover and held at 25° C., 14:10 light-dark for five to seven days. Percent mortality was recorded for the larvae in each well; activity in the eight wells was then averaged. The results are indicated in the table entitled “Table ABC: Biological Results” (See Table Section).
as §1

Structure (SMILES)	mortality at 50 µg/cm2 [1] [%]	mortality at 50 µg/cm2 [2] [%]
O=C(NCCS(=O)(=O)c1ccc(Cl)cc1)c1ccc(/C=C/C(c2cc(Cl)c(Cl)c(Cl)c2)C(F)(F)F)cc1Br (stereo not shown) [F4, (E)-2-Bromo-N-(2-((4-chlorophenyl)sulfonyl)ethyl)-4-(4,4,4-trifluoro-3-(3,4,5-trichlorophenyl)but-1-en-1-yl)benzamide]	50 to 100	50 to 100
O=C(NCCS(=O)(=O)CC(F)(F)F)c1ccc(/C=C/C(c2cc(Cl)c(Cl)c(Cl)c2)C(F)(F)F)cc1Br (stereo not shown) [F10, (E)-2-Bromo-4-(4,4,4-trifluoro-3-(3,4,5-trichlorophenyl)but-1-en-1-yl)-N-(2-((2,2,2-trifluoroethyl)sulfonyl)ethyl)benzamide]	50 to 100	50 to 100
CC(C)[C@H](C[S+]([O-])CC(F)(F)F)NC(=O)c1ccc(/C=C/C(c2cc(Cl)c(Cl)c(Cl)c2)C(F)(F)F)cc1C(F)(F)F (stereo partly drawn) [F15, N-((2R)-3-methyl-1-((2,2,2-trifluoroethyl)sulfinyl)butan-2-yl)-4-((E)-4,4,4-trifluoro-3-(3,4,5-trichlorophenyl)but-1-en-1-yl)-2-(trifluoromethyl)benzamide]	50 to 100	50 to 100
CC(C)[C@H](CS(=O)(=O)CC(F)(F)F)NC(=O)c1ccc(/C=C/C(c2cc(Cl)c(Cl)c(Cl)c2)C(F)(F)F)cc1C(F)(F)F (stereo partly drawn) [F16, N—((R)-3-Methyl-1-((2,2,2-trifluoroethyl)sulfonyl)butan-2-yl)-4-((E)-4,4,4-trifluoro-3-(3,4,5-trichlorophenyl)but-1-en-1-yl)-2-(trifluoromethyl)benzamide]	50 to 100	50 to 100
CC[C@H](CS(=O)(=O)CC(F)(F)F)NC(=O)c1ccc(/C=C/C(c2cc(Cl)c(Cl)c(Cl)c2)C(F)(F)F)cc1C(F)(F)F (stereo partly drawn) [F17, 4-((E)-4,4,4-Trifluoro-3-(3,4,5-trichlorophenyl)but-1-en-1-yl)-N—((R)-1-((2,2,2-trifluoroethyl)sulfonyl)butan-2-yl)-2-(trifluoromethyl)benzamide]	50 to 100	50 to 100
CC[C@H](C[S+]([O-])CC(F)(F)F)NC(=O)c1ccc(/C=C/C(c2cc(Cl)c(Cl)c(Cl)c2)C(F)(F)F)cc1C(F)(F)F (stereo partly drawn) [F18, 4-((E)-4,4,4-Trifluoro-3-(3,4,5-trichlorophenyl)but-1-en-1-yl)-N-((2R)-1-((2,2,2-trifluoroethyl)sulfinyl)butan-2-yl)-2-(trifluoromethyl)benzamide]	50 to 100	50 to 100
CC[C@H](CS(=O)(=O)CC1CC1(F)F)NC(=O)c1ccc(/C=C/C(c2cc(Cl)c(Cl)c(Cl)c2)C(F)(F)F)cc1Br (stereo partly drawn) [F19, 2-Bromo-N-((2R)-1-(((2,2-difluorocyclopropyl)methyl)sulfonyl)butan-2-yl)-4-((E)-4,4,4-trifluoro-3-(3,4,5-trichlorophenyl)but-1-en-1-yl)benzamide]	50 to 100	50 to 100
C[C@H](C[S+]([O-])CC(F)(F)F)NC(=O)c1ccc(/C=C/C(c2cc(Cl)c(Cl)c(Cl)c2)C(F)(F)F)cc1C(F)(F)F (stereo partly drawn) [F23, 4-((E)-4,4,4-Trifluoro-3-(3,4,5-trichlorophenyl)but-1-en-1-yl)-N-((2R)-1-((2,2,2-trifluoroethyl)sulfinyl)propan-2-yl)-2-(trifluoromethyl)benzamide]	50 to 100	50 to 100
CCO/C(=C\C(c1cc(Cl)c(Cl)c(Cl)c1)C(F)(F)F)c1ccc(C(=O)N[C@H](C)CSCC(F)(F)F)c(C(F)(F)F)c1 (stereo partly drawn) [F29, 4-((Z)-1-ethoxy-4,4,4-trifluoro-3-(3,4,5-trichlorophenyl)but-1-en-1-yl)-N—((R)-1-((2,2,2-trifluoroethyl)thio)propan-2-yl)-2-(trifluoromethyl)benzamide]	50 to 100	0
CCO/C(=C\C(c1cc(Cl)c(Cl)c(Cl)c1)C(F)(F)F)c1ccc(C(=O)N[C@H](C)C[S+]([O-])CC(F)(F)F)c(C(F)(F)F)c1 (stereo partly drawn) [F30, 4-((Z)-1-ethoxy-4,4,4-trifluoro-3-(3,4,5-trichlorophenyl)but-1-en-1-yl)-N-((2R)-1-((2,2,2-trifluoroethyl)sulfinyl)propan-2-yl)-2-(trifluoromethyl)benzamide]	50 to 100	50 to 100
CO/C(=C\C(c1cc(Cl)c(Cl)c(Cl)c1)C(F)(F)F)c1ccc(C(=O)N[C@H](C)CSCC(F)(F)F)c(C(F)(F)F)c1 (stereo partly drawn) [F31, 4-((Z)-4,4,4-Trifluoro-1-methoxy-3-(3,4,5-trichlorophenyl)but-1-en-1-yl)-N—((R)-1-((2,2,2-trifluoroethyl)thio)propan-2-yl)-2-(trifluoromethyl)benzamide]	50 to 100	50 to 100
C[C@H](CSCC(F)(F)F)NC(=O)c1ccc(/C=C/C(c2cc(Cl)c(Cl)c(Cl)c2)C(F)(F)F)cc1C(F)F (stereo partly drawn) [F32, 2-(Difluoromethyl)-4-((E)-4,4,4-trifluoro-3-(3,4,5-trichlorophenyl)but-1-en-1-yl)-N—((R)-1-((2,2,2-trifluoroethyl)thio)propan-2-yl)benzamide]	50 to 100	50 to 100
CCO/C(=C/C(c1cc(Cl)c(Cl)c(Cl)c1)C(F)(F)F)c1ccc(C(=O)N[C@H](C)CSCC(F)(F)F)c(C(F)(F)F)c1 (stereo partly drawn) [F33, 4-((E)-1-ethoxy-4,4,4-trifluoro-3-(3,4,5-trichlorophenyl)but-1-en-1-yl)-N—((R)-1-((2,2,2-trifluoroethyl)thio)propan-2-yl)-2-(trifluoromethyl)benzamide]	50 to 100	50 to 100
C[C@H](CS(=O)(=O)CC(F)(F)F)NC(=O)c1ccc(/C=C/C(c2cc(Cl)c(Cl)c(Cl)c2)C(F)(F)F)cc1C(F)F (stereo partly drawn) [F43, 2-(Difluoromethyl)-4-((E)-4,4,4-trifluoro-3-(3,4,5-trichlorophenyl)but-1-en-1-yl)-N—((R)-1-((2,2,2-trifluoroethyl)sulfonyl)propan-2-yl)benzamide]	50 to 100	50 to 100
CC(C)(C[S+]([O-])CC(F)(F)F)NC(=O)c1ccc(/C=C/C(c2cc(Cl)c(Cl)c(Cl)c2)C(F)(F)F)cc1C(F)(F)F (stereo not shown) [F47, (E)-N-(2-Methyl-1-((2,2,2-trifluoroethyl)sulfinyl)propan-2-yl)-4-(4,4,4-trifluoro-3-(3,4,5-trichlorophenyl)but-1-en-1-yl)-2-(trifluoromethyl)benzamide]	50 to 100	50 to 100
CCc1cc(/C=C/C(c2cc(Cl)c(Cl)c(Cl)c2)C(F)(F)F)ccc1C(=O)N[C@H](C)C[S+]([O-])CC(F)(F)F (stereo partly drawn) [F55, 2-Ethyl-4-((E)-4,4,4-trifluoro-3-(3,4,5-trichlorophenyl)but-1-en-1-yl)-N-((2R)-1-((2,2,2-trifluoroethyl)sulfinyl)propan-2-yl)benzamide]	50 to 100	50 to 100
C[C@H](CSCC(F)(F)F)NC(=O)c1ccc(/C=C/C(c2cc(Cl)c3c(c2)OCO3)C(F)(F)F)cc1C(F)(F)F (stereo partly drawn) [F75, 4-((E)-3-(7-Chlorobenzo[d][1,3]dioxol-5-yl)-4,4,4-trifluorobut-1-en-1-yl)-N—((R)-1-((2,2,2-trifluoroethyl)thio)propan-2-yl)-2-(trifluoromethyl)benzamide]	50 to 100	50 to 100
